As usually defined, the EC50 is the midpoint of the concentration-response curve. For orientation: AC50 means the midpoint of the concentration-response curve, whichever way the signal moves.

Consider 52 compounds from ChEMBL document CHEMBL1201862, “PubChem BioAssay data set” (2004).

“And” between values parts separate entries of the source, which are not always exact repeats. Identical values can stand only once. The source made the active and inactive calls. Cut-off read from the data, not from the text of the source, for most assays here: actives have a measured EC50 and inactives only a lower limit. Bounds are passed on as bounds.

Assay [1] deals with T1, Heat shock factor protein 1 (Mus musculus, UniProt P38532).
T1 sequence (P38532 whole entry): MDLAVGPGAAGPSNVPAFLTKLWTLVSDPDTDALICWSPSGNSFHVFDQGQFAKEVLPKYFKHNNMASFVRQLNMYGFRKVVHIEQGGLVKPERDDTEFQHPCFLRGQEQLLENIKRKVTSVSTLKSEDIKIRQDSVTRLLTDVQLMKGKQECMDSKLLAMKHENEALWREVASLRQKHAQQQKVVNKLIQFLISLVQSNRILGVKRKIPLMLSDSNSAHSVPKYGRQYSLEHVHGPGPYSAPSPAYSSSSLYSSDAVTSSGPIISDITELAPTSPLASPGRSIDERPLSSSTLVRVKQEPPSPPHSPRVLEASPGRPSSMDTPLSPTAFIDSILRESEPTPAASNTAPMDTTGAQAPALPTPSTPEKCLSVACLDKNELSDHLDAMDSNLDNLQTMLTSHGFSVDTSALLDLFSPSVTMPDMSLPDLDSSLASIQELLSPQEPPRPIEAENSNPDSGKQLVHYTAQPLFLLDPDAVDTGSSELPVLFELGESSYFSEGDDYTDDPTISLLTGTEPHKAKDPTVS
Description: decrease of HSF1-responsive luciferase luminescence – cell-based, NIH3T3, dose retest, confirmation (AID 2382).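 Note: NIH3T3 fibroblasts with HSF1-driven luciferase reporter stressed by proteasome inhibitor MG132; luminescence from HSF1-driven luciferase expression after 8 hours of MG132 stress.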 In kind it is functional.

The nature of assay [2]: NIH3T3 cell viability loss – ATP luminescence, mouse fibroblasts, counter-screen, dose response (AID 2010).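 Note: cells exposed to compound for about 90 hours before reading.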 It is filed as functional, cell-based. In general terms: A counterscreen serves to expose hits that act by an unwanted route or on another target.
A short description of assay [3]: Trypanosoma cruzi growth suppression in host cells – NIH3T3 host cells, beta-gal luminescence, confirmation (AID 2044).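 Note: intracellular parasites grown in NIH/3T3 mouse fibroblasts as host cells; luminescent beta-galactosidase reporter signal from transgenic T. cruzi replicating inside host cells; inhibitors lower the luminescence signal.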 It is filed as functional, cell-based.
Assay [4] addresses Cytochrome P450 3A4 (Homo sapiens, UniProt P08684).
Assay [5] addresses Cytochrome P450 2D6 (Homo sapiens, UniProt P10635).
For assay [6], the system named is Streptococcus sp. 'group A'. Description: Streptococcus pyogenes SK(-)GAS viability under kanamycin – luminescence, BacTiterGlo, confirmation, counter-screen for streptokinase expression inhibitor project, dose response (AID 1900). It is filed as functional, organism-based.
For assay [7], the system named is Streptococcus. Description: GAS UMAA2166 growth inhibition – luminescence, BacTiterGlo, counter-screen for streptokinase expression inhibitor project, dose response (AID 1915).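 Note: potency for reduction of bacterial viability or growth.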 In kind it is functional, organism-based.

Cytochrome P450 2D6, sequence (P10635 whole entry): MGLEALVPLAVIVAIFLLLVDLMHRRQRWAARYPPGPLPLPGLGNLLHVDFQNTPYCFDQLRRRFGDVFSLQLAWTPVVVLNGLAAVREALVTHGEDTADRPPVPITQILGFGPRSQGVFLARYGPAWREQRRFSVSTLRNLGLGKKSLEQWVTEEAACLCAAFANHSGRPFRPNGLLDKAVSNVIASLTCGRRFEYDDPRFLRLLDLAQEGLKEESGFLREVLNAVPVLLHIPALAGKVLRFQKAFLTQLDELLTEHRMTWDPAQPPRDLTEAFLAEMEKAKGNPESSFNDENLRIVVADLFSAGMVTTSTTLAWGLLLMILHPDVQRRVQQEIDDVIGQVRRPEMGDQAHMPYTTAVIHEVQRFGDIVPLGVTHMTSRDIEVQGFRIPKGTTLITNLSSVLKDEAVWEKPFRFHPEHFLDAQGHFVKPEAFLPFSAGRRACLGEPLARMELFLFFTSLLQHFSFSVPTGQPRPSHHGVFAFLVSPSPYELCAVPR
Cytochrome P450 3A4, sequence (P08684 whole entry): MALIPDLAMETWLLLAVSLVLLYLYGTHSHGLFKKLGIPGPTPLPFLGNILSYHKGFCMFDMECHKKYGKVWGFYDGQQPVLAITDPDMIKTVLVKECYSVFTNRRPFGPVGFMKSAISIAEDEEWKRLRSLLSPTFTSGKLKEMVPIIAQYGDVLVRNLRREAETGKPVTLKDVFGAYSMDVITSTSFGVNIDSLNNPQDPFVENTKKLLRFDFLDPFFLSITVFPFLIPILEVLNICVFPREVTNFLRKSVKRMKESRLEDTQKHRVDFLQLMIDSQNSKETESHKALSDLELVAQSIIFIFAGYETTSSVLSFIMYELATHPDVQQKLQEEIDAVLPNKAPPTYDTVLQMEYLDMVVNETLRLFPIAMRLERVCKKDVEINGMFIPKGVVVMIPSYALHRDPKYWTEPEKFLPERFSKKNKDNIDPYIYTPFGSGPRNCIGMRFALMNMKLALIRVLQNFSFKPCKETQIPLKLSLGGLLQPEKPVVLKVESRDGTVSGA

`CCOC(=O)c1cccc(NC(=O)CCS(=O)(=O)c2ccc(Br)s2)c1`: in assay [1], the EC50 is recorded as > 195 µM (not active).

For `Cc1c(-c2cccc(NC(=O)c3ccco3)c2)nc2ncccn12`, the EC50 in assay [2] was > 60 µM (not active); in assay [3] it was 1.78 µM (active). In the same order, the values of `COC1CCN(Cc2c(C(=O)N3CCN(C4CCCCC4)CC3)nc3ccccn23)CC1` are > 60 µM (not active) and 1.63 µM (active). On to `O=C(NCC1CCCO1)c1onc(CSc2ccc(Cl)cc2)c1C(=O)O` (stereo unspecified), for which the concentration for a half-maximal effect (EC50) in assay [1] is 9.58 µM (active). `C=CCN(c1ccccc1)S(=O)(=O)c1cccc(C(=O)NC2CCN(Cc3ccccc3)CC2)c1`: the results for the EC50 in assay [2] and in assay [3] were 26.8 µM (active) and 0.215 µM (active), respectively.

For `O=C(N/N=C1/C[C@@H](O)[C@@H](O)[C@@H]2[C@H]3C(=O)N(c4ccc(F)cc4F)C(=O)[C@@H]3CC[C@H]12)OCc1ccccc1`, the AC50 in assay [4] is 3.98 µM (inconclusive). As to `O=C(c1ccc2c3c(cccc13)CC2)C1CCCN(Cc2cccnc2)C1` (stereo unspecified), the 50% effective concentration (EC50) is > 60 µM (not active) in assay [2] and 0.709 µM (active) in assay [3]. Take `COc1ccc(NC(=O)CCOc2ccccc2)cc1`: the AC50 in assay [5] is 22.4 µM (inconclusive). Turning to `Cc1cc(C(F)F)nn1CC(=O)NC1C(=O)N2C(C(=O)O)=C(CSc3nnnn3C)CSC12` (stereo unspecified), the EC50 in assay [6] was 0.09 µM (active); in assay [7], 0.106 µM (active).

On to `Cc1cccc(CNc2cc(-c3ccccc3Cl)ncn2)c1`, for which the AC50 in assay [5] was 39.8 µM (inconclusive). The same measure, in the same setting: in the case of `O=S(=O)(Nc1ccc2oc(-c3ccccc3)nc2c1)c1ccccc1` it was 25.1 µM (inconclusive); in that of `CN(C)c1ncc2nc(-c3ccc(F)cc3)c(=O)n(-c3ccccc3)c2n1`, 1.58 µM (inconclusive).

With `COc1ccc(NC(=O)c2cc3cc(OC)ccc3oc2=N)cc1`, the 50% effective concentration (EC50) in assay [1] was > 195 µM (not active). In the case of `Cc1cc(C(F)(F)F)nc(SCc2ccc(C(=O)O)o2)n1`, in assay [1], the EC50 was > 195 µM (not active). For the compound `CNC[C@H](O)c1ccc(OC(=O)C(C)(C)C)c(OC(=O)C(C)(C)C)c1`, the concentration at half-maximal activity (AC50) in assay [4] was 10 µM (inconclusive).

Turning to `CCN1CCN(CCNC(=O)CCCCCn2c(=O)[nH]c3cc(C(=O)OC)ccc3c2=O)CC1`, the EC50 in assay [1] is recorded as > 195 µM (not active). On the same count and under the same terms, in the case of `O=C(c1ccncc1)N1CCN(c2ccc(F)cc2)CC1` it was > 195 µM (not active). As to `Cc1cnc(CNc2ncncc2-c2ccccc2C)cn1`, in assay [5], the AC50 was 12.6 µM (inconclusive). On to `CCCOc1ccc(CNC(=S)N/N=C/c2ccc([N+](=O)[O-])cc2)cc1`, for which the EC50 in assay [2] is > 60 µM (not active); in assay [3], 1.99 µM (active). The like results for `O=[N+]([O-])c1nn(-c2ccc3c(c2)OCCO3)[n+]([O-])c1NCc1ccc(F)cc1` were, in that order, > 60 µM (inconclusive) and 0.595 µM (active).

Take `CCOC(=O)N1CCN(Cc2nc3c(c(=O)n(C)c(=O)n3C)n2Cc2ccccc2)CC1`: in assay [1], the EC50 was > 195 µM (not active). As for `CCOc1ccc(C(=O)c2ccc([N+](=O)[O-])cc2Cl)cc1`, the EC50 in assay [2] was > 30 µM (not active); in assay [3], 2.18 µM (active). In the same order, the values of `CCOC(=O)C1(Cc2ccccc2C(F)(F)F)CCN(C(C)CCn2cccn2)CC1` (stereo unspecified) are > 60 µM (not active) and 0.944 µM (active). As for `C/C(CCC(=O)OC[C@@H]1O[C@H](C#Cc2ccccc2)C=C[C@@H]1Oc1ccc(C)cc1)=N/OC[C@@H](C)[C@H](OCc1ccccc1)C(C)C`, in assay [4], the AC50 was 3.98 µM (inconclusive).

Take `O=c1c(CCc2ccccc2)nc2cncnc2n1Cc1ccc(F)cc1`: the AC50 in assay [5] is 25.1 µM (inconclusive).

As for `CC(C)CNC(=O)C1CCN(Cc2ccc(OCc3ccccc3)cc2)CC1`, in assay [1], the EC50 is > 195 µM (not active). On to `Cc1cccc2nc(CNC(=O)CC3C(=O)NCCN3Cc3cccc(F)c3)cn12` (stereo unspecified), for which the EC50 in assay [2] and in assay [3] was > 60 µM (not active) each time.

As to `CN(Cc1ccccc1)C(=O)c1ccccc1NC(=O)C1=CSCCO1`, the EC50 in assay [1] is reported as > 195 µM (not active).

As for `COc1ccc(CN(C)CC(O)COc2ccc(-c3ccccc3)cc2)cc1OC` (stereo unspecified), the EC50 was 21.7 µM (active) in assay [2] and 0.447 µM (active) in assay [3].

Take `CCOC(=O)C1(CCOc2ccccc2)CCN(Cc2cccc3c2OCO3)CC1`: the EC50 is > 60 µM (not active) in assay [2] and 2.1 µM (active) in assay [3]. The like results for `Cc1ccc(C(=O)N/N=C\c2ccc([N+](=O)[O-])o2)cn1` were, in that order, > 60 µM (not active) and 0.238 µM (active). For `CCc1cccc2c(-c3ccccc3)c3c(nc12)OCC3`, in assay [5], the AC50 was 15.8 µM (inconclusive). The same measure, in the same setting: in the case of `COC(=O)[C@@H]1c2cc3c(c(O)c2[C@@H](O)C[C@]1(C)O)C(=O)c1c(O)cc2c(c1C3=O)O[C@H]1O[C@@]2(C)[C@@H](O)[C@H](N(C)C)[C@H]1O` it was 5.01 µM (inconclusive); in that of `O=C(NC(=S)Nc1ccc2c(c1)OCO2)c1ccccc1`, 3.55 µM (inconclusive). Turning to `COc1cc(C(=O)NC2CCN(Cc3nnnn3Cc3cccs3)CC2)cc(OC)c1OC`, in assay [1], the EC50 is > 195 µM (not active). Consider `COCC(=O)N1CCC2(CC1)CN(c1ccccn1)C2`, for which the AC50 in assay [5] is 20 µM (inconclusive).

For the compound `CN1[C@@H]2CC[C@H]1CC(O[C@@H](c1ccccc1)c1ccc(Cl)cc1)C2` (stereo partly specified), the AC50 in assay [4] was 12.6 µM (inconclusive) and 15.8 µM (inconclusive).

Regarding `Cc1ccc(NC(=O)c2cc(NC(=O)c3ccco3)ccc2N2CCOCC2)cc1`, in assay [1], the EC50 is > 195 µM (not active). For the compound `COc1ccc(C(=O)N2CCC3(CCCN(Cc4ccccc4)C3)CC2)cc1`, in assay [4], the AC50 was 31.6 µM (inconclusive). For `Fc1cccc(NC(=S)N2CCn3cccc3C2c2cccnc2)c1` (stereo unspecified), the EC50 in assay [2] was > 60 µM (not active); in assay [3] it was 0.885 µM (active). For the compound `Clc1cc(/C=N\NC2=NCCN2)cc(Cl)n1`, the EC50 in assay [2] is > 60 µM (not active); in assay [3], 0.663 µM (active). As for `Cc1ccc(C(=O)N/C(=C\c2ccc(Br)cc2)c2n[nH]c(S)n2)cc1`, the AC50 in assay [5] is 31.6 µM (inconclusive). The EC50 in assay [1] was > 195 µM (not active). For `CCC(C)(NC(=O)c1ccccc1)C(=O)O` (stereo unspecified), the EC50 in assay [1] was > 195 µM (not active). Turning to `COc1ccc(OC)c2nc(O)c(CCNC(=O)c3ccc(S(=O)(=O)N4CCCC4)cc3)cc12`, in assay [5], the AC50 was 20 µM (inconclusive). Same read-out and setting: in the case of `CCCCCC(=O)N1CCCC(c2nc(-c3ccc(OC)cc3)no2)C1` (stereo unspecified) it was 15.8 µM (inconclusive). For the compound `CC(C)n1cc(CN2CCN(C)C(CCO)C2)c2ccccc21` (stereo unspecified), the 50% effective concentration (EC50) in assay [2] is > 60 µM (not active); in assay [3], 0.109 µM (active).

For `Cc1ccc2[nH]c(SCc3nc(O)c4cnn(-c5ccccc5)c4n3)nc2c1`, the concentration at half-maximal activity (AC50) in assay [5] is 28.2 µM (inconclusive).

As for `CCO/C(O)=C1\C(C)=NC(=S)NC1c1ccsc1` (stereo unspecified), in assay [1], the EC50 is reported as > 195 µM (not active). In the case of `C/C(=N\NC(=O)CC1N=C(Cc2ccccc2)NNC1=O)c1ccc(Cl)cc1Cl` (stereo unspecified), the concentration at half-maximal activity (AC50) in assay [5] was 15.8 µM (inconclusive). With `C=CCN1CC[C@]23c4c5ccc(O)c4O[C@@H]2/C(=N/NC(=O)c2ccccc2)CC[C@@]3(O)[C@H]1C5`, the AC50 is 15.8 µM (inconclusive) in assay [5] and 3.98 µM (inconclusive) in assay [4]. On to `O=C(CSC1=NCCN1)Nc1ccccc1`, for which the AC50 in assay [4] was 5.01 µM (inconclusive). For `C/C(N)=C(/C#N)C(=O)CSc1nc2scc(-c3ccc(F)cc3)c2c(=O)n1C`, the EC50 was 2 µM (active) in assay [6] and 3.17 µM (active) in assay [7].
